US20250388593A1 (MITSUBISHI TANABE PHARMA CORPORATION, priority 2023, published 2025)
pKd: −log10 of the molar value.

Molecular target: CRBN truncate (318-426) (Homo sapiens (Human), UniProt Q96SW2)
Experiment: Measurement of molecular interactions using surface plasmon resonance (SPR), Biacore T200
Format: binding
Conditions: 25° C., immobilized CRBN truncate, upper limit of measurement 200 μM
Method in brief: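 C-terminally Avi-tagged CRBN (318-426) captured on a streptavidin SA chip on a Biacore T200. Running buffer 10 mM HEPES pH 7.5, 150 mM NaCl, 1 mM TCEP, 0.005% Tween 20, 2% DMSO; 60 s contact, 120 s dissociation.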

Chain of CRBN truncate (318-426) (Q96SW2 318-426): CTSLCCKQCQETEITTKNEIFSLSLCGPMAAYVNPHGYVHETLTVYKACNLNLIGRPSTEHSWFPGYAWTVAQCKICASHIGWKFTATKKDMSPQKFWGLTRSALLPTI

Compound | pKd
Cc1sc2c(c1C)C(c1ccc(Cl)cc1)=N[C@@H](CC(=O)NCCCCCCCCNC(=O)c1cc3c(N4CCC5(CCCC(=O)NC5=O)C4)ncnc3n1C)c1nnc(C)n1-2 (stereo partly drawn) [Example 328, N-[8-[[2-[(9S)-7-(4-Chlorophenyl)-4,5,13-trimethyl-3-thia-1,8,11,12-tetraazatricyclo[8.3.0.02,6]trideca-2(6),4,7,10,12-pentaen-9-yl]acetyl]amino]octyl]-4-(6,8-dioxo-2,7-diazaspiro[4.6]undecan-2-yl)-7-methylpyrrolo[2,3-d]pyrimidine-6-carboxamide] | > 4.30
Cc1sc2c(c1C)C(c1ccc(Cl)cc1)=N[C@@H](CC(=O)NCCCCCCCCNC(=O)c1ccc3nc(N4CCC5(CCCC(=O)NC5=O)C4)sc3c1)c1nnc(C)n1-2 (stereo partly drawn) [Example 329, N-[8-[[2-[(9S)-7-(4-chlorophenyl)-4,5,13-trimethyl-3-thia-1,8,11,12-tetraazatricyclo[8.3.0.02,6]trideca-2(6),4,7,10,12-pentaen-9-yl]acetyl]amino]octyl]-2-(6,8-dioxo-2,7-diazaspiro[4.6]undecan-2-yl)-1,3-benzothiazole-6-carboxamide] | > 4.30
Cc1sc2c(c1C)C(c1ccc(Cl)cc1)=N[C@@H](CC(=O)NCCCCCCCCNC(=O)c1ccc(N3CC4(CC(=O)N(C5CCC(=O)NC5=O)C4=O)C3)nc1)c1nnc(C)n1-2 (stereo partly drawn) [Example 330, N-[8-[[2-[(9S)-7-(4-chlorophenyl)-4,5,13-trimethyl-3-thia-1,8,11,12-tetraazatricyclo[8.3.0.02,6]trideca-2(6),4,7,10,12-pentaen-9-yl]acetyl]amino]octyl]-6-[6-(2,6-dioxopiperidin-3-yl)-5,7-dioxo-2,6-diazaspiro[3.4]octan-2-yl]pyridine-3-carboxamide] | > 4.30
Cc1sc2c(c1C)C(c1ccc(Cl)cc1)=N[C@@H](CC(=O)NCCCCCCCCNC(=O)CN1CC3(CC(=O)N(C4CCC(=O)NC4=O)C3=O)C1)c1nnc(C)n1-2 (stereo partly drawn) [Example 331, 2-[(9S)-7-(4-chlorophenyl)-4,5,13-trimethyl-3-thia-1,8,11,12-tetraazatricyclo[8.3.0.02,6]trideca-2(6),4,7,10,12-pentaen-9-yl]-N-[8-[[2-[6-(2,6-dioxopiperidin-3-yl)-5,7-dioxo-2,6-diazaspiro[3.4]octan-2-yl]acetyl]amino]octyl]acetamide] | > 4.30
Cc1sc2c(c1C)C(c1ccc(Cl)cc1)=N[C@@H](CC(=O)NCCCCCCCCNC(=O)Cn1c(=O)n(C3CCCC(=O)NC3=O)c3ccccc31)c1nnc(C)n1-2 (stereo partly drawn) [Example 332, 2-[(9S)-7-(4-chlorophenyl)-4,5,13-trimethyl-3-thia-1,8,11,12-tetraazatricyclo[8.3.0.02,6]trideca-2(6),4,7,10,12-pentaen-9-yl]-N-[8-[[2-[3-(2,7-dioxoazepan-3-yl)-2-oxobenzimidazol-1-yl]acetyl]amino]octyl]acetamide] | > 4.30
Cc1sc2c(c1C)C(c1ccc(Cl)cc1)=N[C@@H](CC(=O)NCCCCCCCCNC(=O)CCc1cccc3c1n(C)c(=O)n3C1CCCC(=O)NC1=O)c1nnc(C)n1-2 (stereo partly drawn) [Example 333, N-[8-[[2-[(9S)-7-(4-chlorophenyl)-4,5,13-trimethyl-3-thia-1,8,11,12-tetraazatricyclo[8.3.0.02,6]trideca-2(6),4,7,10,12-pentaen-9-yl]acetyl]amino]octyl]-3-[1-(2,7-dioxoazepan-3-yl)-3-methyl-2-oxobenzimidazol-4-yl]propanamide] | > 4.30
Cc1sc2c(c1C)C(c1ccc(Cl)cc1)=N[C@@H](CC(=O)NCCCCCCCCNC(=O)CCc1nn(C3CCCC(=O)NC3=O)c3ccccc13)c1nnc(C)n1-2 (stereo partly drawn) [Example 334, N-[8-[[2-[(9S)-7-(4-chlorophenyl)-4,5,13-trimethyl-3-thia-1,8,11,12-tetraazatricyclo[8.3.0.02,6]trideca-2(6),4,7,10,12-pentaen-9-yl]acetyl]amino]octyl]-3-[1-(2,7-dioxoazepan-3-yl)indazol-3-yl]propanamide] | > 4.30
Cc1sc2c(c1C)C(c1ccc(Cl)cc1)=N[C@@H](CC(=O)NCCCCCCCCNC(=O)c1ccc(N3CCC4(CCCC(=O)NC4=O)CC3=O)nc1)c1nnc(C)n1-2 (stereo partly drawn) [Example 335, N-[8-[[2-[(9S)-7-(4-chlorophenyl)-4,5,13-trimethyl-3-thia-1,8,11,12-tetraazatricyclo[8.3.0.02,6]trideca-2(6),4,7,10,12-pentaen-9-yl]acetyl]amino]octyl]-6-(4,7,9-trioxo-3,8-diazaspiro[5.6]dodecan-3-yl)pyridine-3-carboxamide] | ≤ 4.00
Cc1sc2c(c1C)C(c1ccc(Cl)cc1)=N[C@@H](CC(=O)NCCCCCCCCNC(=O)CCc1ccc(-c3nn(C4CCCC(=O)NC4=O)c(=O)n3C)cc1)c1nnc(C)n1-2 (stereo partly drawn) [Example 336, N-[8-[[2-[(9S)-7-(4-chlorophenyl)-4,5,13-trimethyl-3-thia-1,8,11,12-tetraazatricyclo[8.3.0.02,6]trideca-2(6),4,7,10,12-pentaen-9-yl]acetyl]amino]octyl]-3-[4-[1-(2,7-dioxoazepan-3-yl)-4-methyl-5-oxo-1,2,4-triazol-3-yl]phenyl]propanamide] | > 4.30
Cc1sc2c(c1C)C(c1ccc(Cl)cc1)=N[C@@H](CC(=O)NCCCCCCCCNC(=O)c1ccc3nc(N4CC5(CC(=O)N(C6CCC(=O)NC6=O)C5=O)C4)sc3c1)c1nnc(C)n1-2 (stereo partly drawn) [Example 337, N-[8-[[2-[(9S)-7-(4-chlorophenyl)-4,5,13-trimethyl-3-thia-1,8,11,12-tetraazatricyclo[8.3.0.02,6]trideca-2(6),4,7,10,12-pentaen-9-yl]acetyl]amino]octyl]-2-[6-(2,6-dioxopiperidin-3-yl)-5,7-dioxo-2,6-diazaspiro[3.4]octan-2-yl]-1,3-benzothiazole-6-carboxamide] | > 4.30
Cc1sc2c(c1C)C(c1ccc(Cl)cc1)=N[C@@H](CC(=O)NCCCCCCCCNC(=O)c1ccc(OC3CCCC(=O)NC3=O)nc1)c1nnc(C)n1-2 (stereo partly drawn) [Example 338, N-[8-[[2-[(9S)-7-(4-chlorophenyl)-4,5,13-trimethyl-3-thia-1,8,11,12-tetraazatricyclo[8.3.0.02,6]trideca-2(6),4,7,10,12-pentaen-9-yl]acetyl]amino]octyl]-6-(2,7-dioxoazepan-3-yl)oxypyridine-3-carboxamide] | > 4.30
Cc1sc2c(c1C)C(c1ccc(Cl)cc1)=N[C@@H](CC(=O)NCCCCCCCCNC(=O)COc1ccc(C#N)c(N3CCC4(CCCC(=O)NC4=O)C3)c1)c1nnc(C)n1-2 (stereo partly drawn) [Example 339, 2-[(9S)-7-(4-chlorophenyl)-4,5,13-trimethyl-3-thia-1,8,11,12-tetraazatricyclo[8.3.0.02,6]trideca-2(6),4,7,10,12-pentaen-9-yl]-N-[8-[[2-[4-cyano-3-(6,8-dioxo-2,7-diazaspiro[4.6]undecan-2-yl)phenoxy]acetyl]amino]octyl]acetamide] | > 4.30
Cc1sc2c(c1C)C(c1ccc(Cl)cc1)=N[C@@H](CC(=O)NCCCCCCCCNC(=O)COc1ccccc1-c1cn(C3CCCC(=O)NC3=O)nn1)c1nnc(C)n1-2 (stereo partly drawn) [Example 340, 2-[(9S)-7-(4-chlorophenyl)-4,5,13-trimethyl-3-thia-1,8,11,12-tetraazatricyclo[8.3.0.02,6]trideca-2(6),4,7,10,12-pentaen-9-yl]-N-[8-[[2-[2-[1-(2,7-dioxoazepan-3-yl)triazol-4-yl]phenoxy]acetyl]amino]octyl]acetamide] | > 4.30
Cc1sc2c(c1C)C(c1ccc(Cl)cc1)=N[C@@H](CC(=O)NCCCCCCCCNC(=O)CCc1ccc3c(c1)oc(=O)n3C1CCCC(=O)NC1=O)c1nnc(C)n1-2 (stereo partly drawn) [Example 341, N-[8-[[2-[(9S)-7-(4-chlorophenyl)-4,5,13-trimethyl-3-thia-1,8,11,12-tetraazatricyclo[8.3.0.02,6]trideca-2(6),4,7,10,12-pentaen-9-yl]acetyl]amino]octyl]-3-[3-(2,7-dioxoazepan-3-yl)-2-oxo-1,3-benzoxazol-6-yl]propanamide] | > 4.30
Cc1sc2c(c1C)C(c1ccc(Cl)cc1)=N[C@@H](CC(=O)NCCCCCCCCNC(=O)CCc1ccc3c(c1)sc(=O)n3C1CCCC(=O)NC1=O)c1nnc(C)n1-2 (stereo partly drawn) [Example 342, N-[8-[[2-[(9S)-7-(4-chlorophenyl)-4,5,13-trimethyl-3-thia-1,8,11,12-tetraazatricyclo[8.3.0.02,6]trideca-2(6),4,7,10,12-pentaen-9-yl]acetyl]amino]octyl]-3-[3-(2,7-dioxoazepan-3-yl)-2-oxo-1,3-benzothiazol-6-yl]propanamide] | > 4.30
Cc1sc2c(c1C)C(c1ccc(Cl)cc1)=N[C@@H](CC(=O)NCCCCCCCCNC(=O)CCc1cccc3c(=O)n(C4CCCC(=O)NC4=O)ccc13)c1nnc(C)n1-2 (stereo partly drawn) [Example 343, N-[8-[[2-[(9S)-7-(4-chlorophenyl)-4,5,13-trimethyl-3-thia-1,8,11,12-tetraazatricyclo[8.3.0.02,6]trideca-2(6),4,7,10,12-pentaen-9-yl]acetyl]amino]octyl]-3-[2-(2,7-dioxoazepan-3-yl)-1-oxoisoquinolin-5-yl]propanamide] | > 4.30
Cc1sc2c(c1C)C(c1ccc(Cl)cc1)=N[C@@H](CC(=O)NCCCCCCCCNC(=O)CCc1ccc3c(=O)n(C4CCCC(=O)NC4=O)c(=O)n(C)c3c1)c1nnc(C)n1-2 (stereo partly drawn) [Example 344, N-[8-[[2-[(9S)-7-(4-chlorophenyl)-4,5,13-trimethyl-3-thia-1,8,11,12-tetraazatricyclo[8.3.0.02,6]trideca-2(6),4,7,10,12-pentaen-9-yl]acetyl]amino]octyl]-3-[3-(2,7-dioxoazepan-3-yl)-1-methyl-2,4-dioxo-quinazolin-7-yl]propanamide] | > 4.30
Cc1sc2c(c1C)C(c1ccc(Cl)cc1)=N[C@@H](CC(=O)NCCCCCCCNC(=O)CN1CCC3(CCCC(=O)NC3=O)CC1=O)c1nnc(C)n1-2 (stereo partly drawn) [Example 345, 2-[(9S)-7-(4-chlorophenyl)-4,5,13-trimethyl-3-thia-1,8,11,12-tetraazatricyclo[8.3.0.02,6]trideca-2(6),4,7,10,12-pentaen-9-yl]-N-[7-[[2-(4,7,9-trioxo-3,8-diazaspiro[5.6]dodecan-3-yl)acetyl]amino]heptyl]acetamide] | 4.00 to 4.30
